# Results reported in ChEMBL document CHEMBL1146835, “Aspermytin A: a new neurotrophic polyketide isolated from a marine-derived fungus of the genus Aspergillus” (2004).
# Tested on: PC-12
# Assay: Neurotrophic effect on rat pheochromocytoma (PC-12) cells was expressed as percent cells with neurites after 2 days treatment with 50 uM of compound
# Assay type: functional
structure (smiles),measurement,value
C[C@H]1CCC2[C@@H](C=C[C@@](C)(O)[C@]2(C)C(=O)CCO)C1 (stereo partly specified),Cells,>50%
